Experimental data taken from article PMC11596612, “Nine New Glycosylated Compounds from the Leaves of the Medicinal Plant Malus hupehensis” (Molecules, 2024).

System: NO production in LPS-activated RAW 264.7 macrophage cells
Test: Anti-NO activity assay: inhibition of NO production in LPS-activated RAW 264.7 macrophage cells
Type: cell-based
Conditions: LPS-activated RAW 264.7 cells; means of three independent replicates; ammonium pyrrolidinedithiocarbamate positive control; read-out: NO production inhibitory activity IC50 (RAW 264.7)
Method: Using a previously published method, the anti-inflammatory activity of all compounds (1–15) was assessed based on the suppression of NO generation in RAW264.7 cells.

| Molecule | IC50 [µM] |
| --- | --- |
| S=C(S)N1CCCC1 [Ammonium pyrrolidinedithiocarbamate, reference compound] | 20 ± 0.12 |
| O=C(OC[C@H]1O[C@@H](Oc2cc(O)cc(O)c2C(=O)CCc2ccc(O)cc2)[C@H](O)[C@@H](O)[C@@H]1O)c1ccccc1 [Compound 10, phloridzin 6″-O-benzoate] | > 40 |
| O=C(C=Cc1ccccc1)OCC1OC(Oc2cc(O)cc(O)c2C(=O)CCc2ccc(O)cc2)C(O)C(O)C1O (stereo not shown) [Compound 11, phloridzin 6″-O-cinnamate] | > 40 |
| methylenebisphloridzin [Compound 13] | > 40 |

Same assay, conditions: Mus musculus, RAW264.7; LPS-activated RAW 264.7 cells; means of three independent replicates; ammonium pyrrolidinedithiocarbamate positive control; read-out: NO production inhibitory activity IC50 (RAW 264.7)

| Molecule | IC50 [µM] |
| --- | --- |
| O=C(O[C@H]1[C@H](Oc2cc(O)cc(O)c2C(=O)CCc2ccc(O)cc2)O[C@H](CO)[C@@H](O)[C@@H]1O)c1ccccc1 [Compound 1, malahupinoside C] | > 40 |
| O=C(/C=C/c1ccccc1)O[C@H]1[C@H](Oc2cc(O)cc(O)c2C(=O)CCc2ccc(O)cc2)O[C@H](CO)[C@@H](O)[C@@H]1O [Compound 2, malahupinoside D] | > 40 |
| O=C(/C=C/c1ccc(O)cc1)OC[C@H]1O[C@@H](Oc2cc(O)cc(O)c2C(=O)CCc2ccc(O)cc2)[C@H](O)[C@@H](O)[C@@H]1O [Compound 3, malahupinoside E] | > 40 |
| COc1cc(/C=C/C(=O)OC[C@H]2O[C@@H](Oc3cc(O)cc(O)c3C(=O)CCc3ccc(O)cc3)[C@H](O)[C@@H](O)[C@@H]2O)ccc1O [Compound 4, malahupinoside F] | 29.6 |
| COc1cccc2c1oc1c(OC)cc(O)cc12 [Compound 5] | > 40 |
| COc1cccc2c1oc1c(OC)cc(O)c(OC3OC(CO)C(O)C(O)C3O)c12 (stereo not shown) [Compound 6, fortuneanoside N] | > 40 |
| COc1cc(O)c(OC2OC(CO)C(O)C(O)C2O)c2c1oc1ccccc12 (stereo not shown) [Compound 7, fortuneanoside O] | > 40 |
| COc1cc(OC)cc(-c2ccccc2OC2OC(CO)C(O)C(O)C2O)c1 (stereo not shown) [Compound 8, fortuneanoside P] | > 40 |
| COc1cc(OC)c(OC2OC(CO)C(O)C(O)C2O)c(-c2ccccc2O)c1 (stereo not shown) [Compound 9, fortuneanoside Q] | > 40 |
| O=C(/C=C/c1ccc(O)cc1)Oc1ccc(CCC(=O)c2c(O)cc(O)cc2O[C@@H]2O[C@H](CO)[C@@H](O)[C@H](O)[C@H]2O)cc1 [Compound 12, 4-[3-[2-(β-D-Glucopyranosyloxy)-4,6-dihydroxyphenyl]-3-oxopropyl]phenyl(2E)-3-(4-hydroxyphenyl)-2-propenoate] | > 40 |
| COc1cc(O)cc2c1oc1ccccc12 [Compound 14, 2-Hydroxy-4-methoxydibenzofuran] | > 40 |
| COc1cc(OC)cc(-c2ccc(O)c(O[C@@H]3O[C@H](CO)[C@@H](O)[C@H](O)[C@H]3O)c2)c1 [Compound 15, 3′,5′-Dimethoxy-(1,1′-biphenyl)-3,4-diol 3-O-β-D-glucopyranoside] | > 40 |
